Laboratory results as given in publication PMC4137035 (Bioorganic & medicinal chemistry letters, 2014).
Values after ≈ are worked out from the molar mass of the structure shown. Each block holds one molecule with its values, some of them ahead of it.

Key:
wild-type HIV-1 (IIIB) = format: cell-based; conditions: selective index, CC50 vs EC50 IIIB
[1] = Aqueous solubility measured by HPLC; format: physicochemical
[2] = aqueous medium at pH 7.4 (buffer not named), pH 7.4

SMILES: Cc1cc(C#N)cc(C)c1Oc1cc(Nc2ccc(C#N)cc2)c(N)cc1CO [7a]
SI (wild-type HIV-1 (IIIB)): 114,019
solubility [1, 2]: < 1 µg/mL

SMILES: Cc1cc(C#N)cc(C)c1Oc1cc(Nc2ccc(C#N)cc2)c(N)cc1CNC1CC1 [7c]
SI (wild-type HIV-1 (IIIB)): 1,142
solubility ([1]; aqueous medium at pH 2.0 (buffer not named), pH 2): 285 µg/mL (≈ 673 µM)

SMILES: Cc1cc(C#N)cc(C)c1Oc1cc(Nc2ccc(C#N)cc2)c(N)cc1CNCCCO [7d]
SI (wild-type HIV-1 (IIIB)): 2,475

solubility [1, 2]: < 1 µg/mL
SMILES: COCc1cc(N)c(Nc2ccc(C#N)cc2)cc1Oc1c(C)cc(C#N)cc1C [7g]

solubility [1, 2]: < 1 µg/mL
SMILES: CC(=O)OCc1cc(N)c(Nc2ccc(C#N)cc2)cc1Oc1c(C)cc(C#N)cc1C [7h]

SMILES: COCc1cc(N)c(Nc2ccc(C#N)cc2)cc1Oc1c(C)cc(/C=C/C#N)cc1C [11a]
SI (wild-type HIV-1 (IIIB)): 8,763
solubility [1, 2]: < 1 µg/mL

SMILES: CC(=O)OCc1cc(N)c(Nc2ccc(C#N)cc2)cc1Oc1c(C)cc(/C=C/C#N)cc1C [11b]
SI (wild-type HIV-1 (IIIB)): 117,439
solubility [1, 2]: < 1 µg/mL

SMILES: COCc1cc(N)c(Nc2ccc(C#N)cc2)cc1Oc1c(C)cc(CCC#N)cc1C [12a]
SI (wild-type HIV-1 (IIIB)): >61,538
solubility [1, 2]: < 1 µg/mL

SMILES: CC(=O)OCc1cc(N)c(Nc2ccc(C#N)cc2)cc1Oc1c(C)cc(CCC#N)cc1C [12b]
SI (wild-type HIV-1 (IIIB)): 46,667
solubility [1, 2]: < 1 µg/mL
